Columns and labels:
[1] = Stability test: accelerated storage of formulations (CIPAC MT 46.3), mefenpyr-diethyl content by HPLC before and after aging; format: physicochemical; details: stored at 54° C. for 1 week
Method: The stability of the mefenpyr-diethyl in these compositions was determined by aging samples in heated ovens having the same atmosphere therein, and then comparing the mefenpyr-diethyl content before and after aging to determine relative percentage of hydrolysis (RPH). RPH was calculated by the following equation: […]
Mefenpyr-diethyl content was determined by assaying the compositions with high-pressure liquid chromatography (HPLC) using reverse phase columns and eluants.
Samples prepared in Examples 4, 5 and 6 were stored at 54° C. for 1 week. The procedures are followed according to CIPAC MT 46.3. The concentration of mefenpyr-diethyl was measured at the end of each storage time by HPLC.

[2] = General stability of mefenpyr-diethyl forms (hydrolysis in water or on storage); format: physicochemical; details: dissolved or dispersed in water, or during storage exposed to moisture, result in words
Source text: It will generally undergo significant hydrolysis when dissolved or dispersed in water. Furthermore, hydrolysis can occur during storage, particularly where the compound is exposed to moisture. As a result, the stability of mefenpyr-diethyl is of great concern with respect to providing the commercially available formulations. Therefore, there is a need to provide a novel form mefenpyr-diethyl with increased stability in formulations.
Accordingly, in an embodiment, the invention provides a novel crystalline form of mefenpyr-diethyl, termed “crystalline modification I”, and a process for its preparation, as well as its use in agrochemical compositions. […] Accordingly, in an embodiment, the invention also provides compositions for controlling undesirable plant growth, such as weeds, comprising the crystalline modification I of mefenpyr-diethyl with sulfonylurea herbicides, as a mixture with auxiliaries and carriers. The use of the crystalline modification I of mefenpyr-diethyl with sulfonylurea herbicides in the control of undesired plant growth and a method for the same are also provided by embodiments of the invention.

[3] = Example 4 oil based suspension concentrate (OD) with iodosulfuron-methyl-sodium, 10 weight % mefenpyr-diethyl
[4] = Example 5 soluble granules (SG) with mesosulfuron-methyl, 7 weight % mefenpyr-diethyl
[5] = Example 6 water dispersible granules (WG) with iodosulfuron-methyl-sodium, 7 weight % mefenpyr-diethyl

Row | SMILES | RPH % (relative percentage of hydrolysis) [1, 3] [%] | RPH % (relative percentage of hydrolysis) [1, 4] [%] | RPH % (relative percentage of hydrolysis) [1, 5] [%] | stability (hydrolysis) [2] | stability (hydrolysis) ([2]; listed as mefenpyr-diethyl in amorphous state)
1 | CCOC(=O)C1=NN(c2ccc(Cl)cc2Cl)C(C)(C(=O)OCC)C1 (racemic) [Mefenpyr-diethyl, crystalline modification I] [diethyl (RS)-1-(2,4-dichlorophenyl)-5-methyl-2-pyrazoline-3,5-dicarboxylate] | 0 | 0 | 0 | increased stability relative to the amorphous form | –
2 | CCOC(=O)C1=NN(c2ccc(Cl)cc2Cl)C(C)(C(=O)OCC)C1 (racemic) [Amorphous mefenpyr-diethyl, diethyl (RS)-1-(2,4-dichlorophenyl)-5-methyl-2-pyrazoline-3,5-dicarboxylate] | 50 | 40 | 45 | – | highly unstable

From patent US9809555B2, “Form of mefenpyr-diethyl, a process for its preparation and use of the same” (ROTAM AGROCHEM INTERNATIONAL COMPANY LIMITED, priority 2015, dated 2017)
